As a reminder, the IC50 is the concentration needed to halve the response being measured.

The subject of assay [1] is advanced or metastatic breast cancer. Put plainly: Phase 2 open-label study of bosutinib, efficacy. The settings on record: 400 mg once-daily. In kind it is in vivo, human. Here is the method: In a phase 2, open-label, study of bosutinib in subjects with advanced or metastatic breast cancer where bosutinib is given at 400 mg once-daily, 73 total patients were randomized. As of 9 Jun. […] All of the responding patients had ER/PgR+ metastatic disease, but were less heavily pretreated with chemotherapy than typical patients and none had received prior endocrine therapy. […] In that trial, the median PFS was 15 weeks for all patients, 15.6 weeks and 14.9 weeks in ER+ and/or PgR+ and ER+ and/or PgR+, HER2-patients subgroups, respectively. There were 51 ER/PgR+ patients enrolled in the trial and a little more than half had received prior endocrine therapy, out of them 33 patients were ER/PgR+, HER2-. The preliminary safety data available for 73 subjects as of 9 Jun. 2008 are consistent with data from other ongoing studies. TEAEs were most frequently associated with gastrointestinal disorders (diarrhea, 66%; nausea, 55%; vomiting, 47%; abdominal pain, 12%; dyspepsia, 10%), general disorders (fatigue, 26%, asthenia, 19%, peripheral oedema, 11%; pyrexia, 10%), infections and infestations (16%), metabolism disorders (ALT increase, 12%; AST increase, 12%, weight loss, 11%; anorexia, 18%), musculoskeletal disorders (anthralgia, 12%; back pain, 12%), headache (14%), and rash (14%). Out of all of these TEAEs, only gastrointestinal disorders (diarrhea, 64%; nausea, 51%; vomiting, 42%; abdominal pain, 10%), general disorders (fatigue, 16%, asthenia, 14%), metabolism disorders (ALT increase, 11%; AST increase, 10%; anorexia, 15%) and rash (10%) were considered at least possibly related to bosutinib.

Assay [2] deals with MDA-MB-231 (ER neg). The experiment in a line: Cell proliferation assay (CellTiter Glo), MDA-MB-231. Type of assay: cell-based. To be noted: Homo sapiens. As for the experimental part:
(§1) Cell lines were obtained from ATCC. Estrogen was obtained from SIGMA, 4-hydroxytamoxifen was obtained from SIGMA, Bosutinib was used for these studies. Charcoal-stripped serum and phenol red-free medium was obtained from Invitrogen. CellTiter Glo was obtained from Promega.
(§2) Cell cultures. Proliferation assays with cells in complete fetal calf serum were performed with medium containing phenol red. For all assays examining estrogen-dependence, cells were cultured in phenol red-free medium; DMEM/F12 (MCF7), RPMI1640 (MDA-MB-361, T47D) MEM (BT20, MDA-MB-231) McCoys5A modified (SKBR3), Leibowitz' L15 medium supplemented with 10 ng/mL insulin (MDA-MB-435 and MDA-MB-468) with 10% fetal bovine serum supplemented with glutamine and gentamicin. For proliferation assays, trypsinized cells were subjected to three cycles of centrifugation and resuspension in phenol red-free medium supplemented with charcoal stripped medium (5% final), glutamine and Pen/Strep. Cells were plated on day 0, with or without estrogen (10 nM final concentration). On day 1, 4-hydroxytamoxifen and SKI-606 or DMSO were added as a serial dilution. Cells were incubated for 7 days, after which CellTiter Glo (Promega) was added as recommended by the manufacturer. After mixing and two hours incubation on the bench, plates were read on an Envision reader. […] The 10 uM data point was dropped for these two lines since there was a clear plateau prior to the sharp drop in luminescence observed at 10 uM compound. The IC50 was calculated using a floating minima corresponding to the lowest luminescence value at 5 uM.
(§3) Cell proliferation assays were performed in two formats; a three day proliferation assay in fully supplemented medium with phenol red, and a 7 day proliferation assay in phenol red free medium supplemented with charcoal-stripped medium. […] ER positive T47D cells were slightly more sensitive to SKI-606 in the presence of estrogen. BT20 cells were equally sensitive to SKI-606 in stripped serum medium, regardless of whether estrogen was present. […]

Assay [3] has as its system SKBR3 (ER neg). The experiment in a line: Cell proliferation assay (CellTiter Glo), SKBR3. In kind it is cell-based. The settings on record: Homo sapiens. As for the experimental part: as §1
as §2, with “The” for “The 10 uM data point was dropped for these two lines since there was a clear plateau prior to the sharp drop in luminescence observed at 10 uM compound. The”
Cell proliferation assays were performed in two formats; a three day proliferation assay in fully supplemented medium with phenol red, and a 7 day proliferation assay in phenol red free medium supplemented with charcoal-stripped medium.
The complete medium data were obtained in 3-day assays, while stripped serum assays were extended for 7 days with one change of medium at day 5.
A general note: Cellular ATP, detected with luciferase, serves as a proxy for viable cell number.

Assay [4] relates to BT-20 (ER neg). Put plainly: Cell proliferation assay (CellTiter Glo), BT-20. Type of assay: cell-based. To be noted: for IC50: Homo sapiens, BT-20, 168 h, 7 Day assay, charcoal stripped serum, no phenol red, plateau cell number at 5 μM used. Here is the method: as §1, §2, §3

Read-outs that look alike come from different tables or passages of the source.

`COc1cc(Nc2c(C#N)cnc3cc(OCCCN4CCN(C)CC4)c(OC)cc23)c(Cl)cc1Cl` [bosutinib]: the “tumor shrinkage in the near response” value in assay [1] was 29%. Further, the clinical benefit in assay [1] (73 patients, responders plus stable disease ≧24 weeks) was 27.4%. In assay [1] (of 73 patients), this molecule registered a near response of 1. Also, the partial response in assay [1] (of 73 patients) was found to be 4 subjects. Moreover, the “stable disease ≧24 weeks” value in assay [1] (of 73 patients) turned out to be 13 patients. Moreover, the “median PFS” value came to 15.6 weeks in assay [1] (ER+ and/or PgR+ subgroup); 14.9 weeks in assay [1] (ER+ and/or PgR+, HER2- subgroup); 15 weeks in assay [1] (all patients). For the same molecule, the IC50 was 4.3 µM in assay [2] (MDA-MB-231, 72 h, 3 Day assay, complete medium (10% FCS), read-out: IC50 (uM) 10% FCS); 5.05 µM in assay [2] (MDA-MB-231, 168 h, 7 Day assay, charcoal stripped serum, no phenol red, 10 nM estrogen, read-out: IC50 (uM) E2); 5.1 µM in assay [2] (MDA-MB-231, 168 h, 7 Day assay, charcoal stripped serum, no phenol red, without estrogen, read-out: IC50 (uM) no E2); 1.5 µM in assay [3] (SK-BR-3, 72 h, 3 Day assay, complete medium (10% FCS), read-out: IC50 (uM) 10% FCS); 1.38 µM in assay [3] (SK-BR-3, 168 h, 7 Day assay, charcoal stripped serum, no phenol red, 10 nM estrogen, read-out: IC50 (uM) E2); 1.43 µM in assay [3] (SK-BR-3, 168 h, 7 Day assay, charcoal stripped serum, no phenol red, without estrogen, read-out: IC50 (uM) no E2). Moreover, the IC50 was 0.24 µM in assay [4] (10 nM estrogen, read-out: IC50 (uM) E2) and 0.28 µM in assay [4] (without estrogen, read-out: IC50 (uM) no E2). The “toxicity at maximal concentration” value in assay [4] (10 uM SKI-606, BT20 cells) is “some toxicity was seen”.

The record behind these values is US20100069340A1, “PHARMACEUTICAL COMPOSITIONS OF AN SRC KINASE INHIBITOR AND AN AROMATASE INHIBITOR” (Wyeth, priority 2008, published 2010).
